Measured values taken from patent publication US20170008888A1 (KYORIN PHARMACEUTICAL CO., LTD., priority 2014, published 2017).
Read-outs that look alike come from different tables or passages of the source.

How the values were obtained:
[1] = tested on: diseased primary human lung fibroblasts; assay: Cytokine response by primary diseased human lung fibroblasts stimulated with IL-17A or IL-17F; type: cell-based; settings: Fibroblast, 48 h
Experimental: Primary lung fibroblasts isolated from a patient diagnosed with asthma were obtained from Lonza (Allendale, N.J.) and maintained in FGM-2 fibroblast growth medium (Lonza). Cells were seeded at 1e5 cells/ml and incubated at 37° C. in a humidified atmosphere at 5% CO2 overnight to adhere. Cells were pre-treated with test compounds (10 μM down by ⅕ in a 3- or 4-point serial dilution series) for 1 h at 37° C. in a humidified atmosphere at 5% CO2. DMSO at a final concentration of 0.1% served as the non-inhibited control. Cells were stimulated with 50 ng/ml of either human recombinant IL-17A or IL-17F (eBioscience, San Diego, Calif.), for 48 h. Supernatant was then collected and analyzed for cytokine concentrations using the Bio-Plex Pro Human Cytokine 17-Plex Panel (Bio-Rad Laboratories, Hercules, Calif.) according to the manufacturer's instructions. Magnetic beads were measured on the Bio-Plex MAGPIX multiplex reader instrument using the accompanying xPONENT 4.2 acquisition software (Bio-Rad Laboratories). Data were analyzed via the Bio-Plex Manager software v6.1 (Bio-Rad Laboratories). Only four (+IL-17F) to six (+IL-17A) cytokines were in range of detection under the conditions used.
G-CSF concentrations were below the limit of detection when cells were stimulated with IL-17F.

human Th17 cells = assay: Cytokine response by in vitro-polarized human Th17 cells stimulated with PMA/ionomycin; type: cell-based; settings: 10 μM compound, PMA/ionomycin 20 h
Experimental: In vitro differentiation of human Th17 cells: Human CD4+ T cells (isolated as described in protocol A) were polarized into Th17 cells as follows: Tissue culture-treated 100 mm plates (Corning, Corning, N.Y.) were coated with 10 μg/ml anti-human CD3 clone OKT3 antibody overnight at 4° C. Polarization was initiated by seeding approximately 2-3 e7 human CD4+ T cells onto the anti-CD3 plates in Polarization media consisting of: RPMI 1640 medium (Lonza, Allendale, N.J.) supplemented with 10% (v/v) charcoal-dextran treated, heat inactivated FBS (Omega Scientific, Tarzana, Calif.), 0.05 mM 2-Mercaptoethanol (Sigma-Aldrich, St. Louis, Mo.), and 1×Pen/Strep Amphotericin B (Lonza), with added recombinant human IL-23 (40 ng/ml) and anti-CD28 clone CD28.2 antibody (2 μg/ml); all recombinant human cytokines and anti-human neutralizing antibodies were purchased from eBioscience (San Diego, Calif.). Cells were incubated in the above Polarization media for 3 days at 37° C. in a humidified atmosphere at 5% CO2. After 3 days, the Polarization media was replaced with Maintenance media, consisting of RPMI 1640/FBS/2-Mercaptoethanol/Pen/Strep Amphotericin B supplemented with recombinant human IL-23 (40 ng/ml) alone, and the cells were re-plated onto regular tissue-culture-treated plates (not anti-CD3 coated). Cells were incubated in the Maintenance media for an additional 3 days at 37° C. in a humidified atmosphere at 5% CO2.
Inhibition of PMA/ionomycin-stimulated cytokine response by in vitro-differentiated human Th17 cells: Human Th17 cells, generated as described above, were seeded at 2e6 cells/ml in RPMI 1640 containing 10% (v/v) charcoal-dextran treated, heat inactivated FBS (Omega Scientific, Tarzana, Calif.), 0.05 mM 2-Mercaptoethanol (Sigma-Aldrich, St. Louis, Mo.), and 1×Pen/Strep Amphotericin B (Lonza, Allendale, N.J.). Cells were pre-treated with test compounds (10 μM) for 1 h at 37° C. in a humidified atmosphere at 5% CO2. Cells were then stimulated with 50 ng/ml phorbol 12-myristate 13-acetate (PMA) (Sigma-Aldrich, St. Louis, Mo.)+1 μg/ml ionomycin (Life Technologies, Grand Island, N.Y.) for 20 h at 37° C. in a humidified atmosphere at 5% CO2. Supernatant was collected and analyzed using Bio-Plex Pro Human Th17 Cytokine 15-Plex Panel (Bio-Rad Laboratories, Hercules, Calif.) as per manufacturer's protocols. Magnetic beads were read on the Bio-Plex MAGPIX multiplex reader instrument using the accompanying xPONENT 4.2 acquisition software (Bio-Rad Laboratories). Data were analyzed via the Bio-Plex Manager software v6.1 (Bio-Rad Laboratories). Cytokine secretion levels from Th17 cells treated with 0.1% DMSO+Stimulation were normalized to 100%.
IL-1β, IL-25, and IL-33 were below the limit of detection under conditions used. The concentrations of the observed analytes from top to bottom, as listed, are as follows: 8899, 567, 174, 99, 10380, 511, 239, 548, 81, 966, 504, and 76223 pg/ml.

[2] = +50 ng/ml IL-17A, read-out: EC50 values (μM), G-CSF
[3] = +50 ng/ml IL-17A, read-out: EC50 values (μM), IL-6
[4] = +50 ng/ml IL-17A, read-out: EC50 values (μM), IL-8
[5] = +50 ng/ml IL-17A, read-out: EC50 values (μM), MCP-1
[6] = +50 ng/ml IL-17F, read-out: EC50 values (μM), IL-6
[7] = +50 ng/ml IL-17F, read-out: EC50 values (μM), IL-8
[8] = +50 ng/ml IL-17F, read-out: EC50 values (μM), MCP-1
[9] = read-out: Percent inhibition of IFNγ (relative to DMSO control)
[10] = read-out: Percent inhibition of IL-4 (relative to DMSO control)
[11] = read-out: Percent inhibition of IL-6 (relative to DMSO control)
[12] = read-out: Percent inhibition of IL-10 (relative to DMSO control)
[13] = read-out: Percent inhibition of IL-17A (relative to DMSO control)
[14] = read-out: Percent inhibition of IL-17F (relative to DMSO control)
[15] = read-out: Percent inhibition of IL-21 (relative to DMSO control)
[16] = read-out: Percent inhibition of IL-22 (relative to DMSO control)
[17] = read-out: Percent inhibition of IL-23 (relative to DMSO control)
[18] = read-out: Percent inhibition of IL-31 (relative to DMSO control)
[19] = read-out: Percent inhibition of TNFα (relative to DMSO control)
[20] = read-out: Percent inhibition of sCD40L (relative to DMSO control)

Compound | EC50 [1, 2] [µM] | EC50 [1, 3] [µM] | EC50 [1, 4] [µM] | EC50 [1, 5] [µM] | EC50 [1, 6] [µM] | EC50 [1, 7] [µM] | EC50 [1, 8] [µM] | inhibition at 10 µM (human Th17 cells; [9]) [%] | inhibition at 10 µM (human Th17 cells; [10]) [%] | inhibition at 10 µM (human Th17 cells; [11]) [%] | inhibition at 10 µM (human Th17 cells; [12]) [%] | inhibition at 10 µM (human Th17 cells; [13]) [%] | inhibition at 10 µM (human Th17 cells; [14]) [%] | inhibition at 10 µM (human Th17 cells; [15]) [%] | inhibition at 10 µM (human Th17 cells; [16]) [%] | inhibition at 10 µM (human Th17 cells; [17]) [%] | inhibition at 10 µM (human Th17 cells; [18]) [%] | inhibition at 10 µM (human Th17 cells; [19]) [%] | inhibition at 10 µM (human Th17 cells; [20]) [%]
CCOc1cc(C(=O)N2CCC(N3CCN(C)CC3)CC2)ccc1Nc1cc2c(cn1)N(C)C(=O)c1occc1N2C [Compound 65] | 3.5 | 5.69 | 0.48 | 1.31 | 2.49 | 0.52 | 1.85 | -0.6 | 4.6 | 87.3 | 78.6 | 13.9 | 39.7 | 0.8 | 61.7 | -79.4 | -3.2 | 11.3 | 31.6
CCOc1cc(C(=O)N2CCC(N3CCN(C)CC3)CC2)ccc1Nc1cc2c(cn1)N(C)C(=O)c1ccccc1N2C [Compound 61] | 1.99 | 6.98 | 0.54 | 1.33 | 4.45 | 0.45 | 1.57 | 7.6 | -19.5 | 91.4 | 78.6 | 37.5 | 80.9 | 22.4 | 65.8 | -2.8 | -1.1 | -6.3 | 19
CCOc1cc(C(=O)NCC2CC2)ccc1Nc1cc2c(cn1)N(C)C(=O)c1ccccc1N2C [Compound 57] | – | – | – | – | – | – | – | 17.4 | -11.8 | 93.1 | 80 | 49.5 | 67.4 | 28.6 | 76.8 | 29.8 | 3 | 5.6 | 32.3
CCOc1cc(C(=O)N2CCNCC2)ccc1Nc1cc2c(cn1)N(C)C(=O)c1ccccc1N2C [Compound 62] | – | – | – | – | – | – | – | 11.7 | -17 | 87.8 | 80.3 | 27.7 | 60 | 2.5 | 66.2 | 15.8 | -1.4 | -10.4 | 31.9
CCOc1cc(C(=O)N2CC[C@@H](N(C)C)C2)ccc1Nc1cc2c(cn1)N(C)C(=O)c1ccccc1N2C [Compound 115] | 0.86 | 1.16 | < 0.08 | 0.35 | 0.95 | < 0.08 | 0.36 | 18.4 | 1.5 | 92.5 | 80.1 | 68.3 | 83.5 | -86.1 | 75.7 | -30.7 | 3.4 | 57.1 | 53.7
CCOc1cc(C(=O)N2CCC(N3CCCC3)CC2)ccc1Nc1cc2c(cn1)N(C)C(=O)c1ccccc1N2C [Compound 46, 3-(2-Ethoxy-4-(4-(pyrrolidin-1-yl)piperidine-1-carbonyl)phenylamino)-5,11-dimethyl-5H-benzo[e]pyrido[3,4-b][1,4]diazepin-10(11H)-one] | – | – | – | – | – | – | – | 11.9 | -2.8 | 90.6 | 79.7 | 56.6 | 81.8 | -6.1 | 74 | -58.8 | -3 | 22 | 36.3
